Measured values as given in patent US5147876A, “2,6-di,2,4,6-, 2,5,6-tri and 2,4,5,6-tetra-substituted pyrimidines, their pharmaceutically acceptable salts, pharmaceutical compositions containing same and their use in the treatment of neurological diseases” (Mitsui Petrochemical Industries, Ltd., priority 1988, dated 1992).

Columns and labels:
[1] = test system: NS-20Y (mouse neuroblastoma cells); assay: Activity on NS-20Y cells: appearance of neurites; format: cell-based
Protocol: The effects of the compounds of this invention on neuroblastoma cells were examined by the following method.
Mouse neuro 2a cells in the logarithmic growth period in the Dulbecco's modified Eagle's medium DMEM, containing 100 units/ml of penicillin G sodium and 100 micrograms/ml of streptomycin sulfate]containing 10 % of FCS were seeded in a 48-well plate so that the number of cells was 1,000 cells/well, and cultured for one day in 0.25 ml of the culture fluid in each well in an incubator containing 5 % of carbon dioxide gas in air at 37° C. Then, a 4 % aqueous glutaraldehyde solution in the same amount as a medium (0.25 ml) was added, and the culture fluid was left to stand at room temperature for 2 hours to fix the cells. After washing with water, a 0.05 % aqueous solution of methylene blue was added to stain the cells Under a microscope, the number of cells containing outgrown neurites (cells having at least one neurite with a length of at least two times as large as the long diameter of the cell) was counted visually, and the proportion of these cells in the entire cells was calculated. The well was observed over 5 or more visual fields (at least 2 % of the entire surface area of the well) continuous to the left and right from a mark put at the center of the well, and more than 200 cells was counted. One drug compound was used in 6 different concentrations at most, and three runs were conducted for each concentrations.
Mouse neuroblastoma cells NS-20Y were similarly cultured in a dish coated with polyornithine, and the effects of the compounds were examined.

[2] = test system: neuro-2a (mouse neuroblastoma cells); assay: Action on neuro-2a: proportion of cells containing outgrown neurites; format: cell-based; conditions: mean ± S.D.
In short: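 Read-out is the percentage of neurite-bearing cells (neurite ≥2× long cell diameter), counted microscopically over more than 200 cells per well. Before fixation and staining, neuro-2a cells (1,000/well, DMEM + 10% FCS) were cultured for one day at 37 °C; up to six compound concentrations, three runs each.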

Acute toxicity on mice = format: in vivo; conditions: mouse, in vivo, ip, 24 hours after administration; read-out: Estimated LD50
Protocol: The acute toxicity of the compounds of the invention was examined by the following method.
Male ddy-strain 5-week old mice, 4-6- per group, were used as experimental animals. Each of the compounds was intraperitoneally (i.p.), and the toxicity of the compound was assessed 24 hours after the administration.

Row | Compound | Number of cells having neurites with a length at least two times the diameter of each cell/total number of cells ([2]; 0.03 mM) [%] | Number of cells having neurites with a length at least two times the diameter of each cell/total number of cells ([2]; 0.1 mM) [%] | Number of cells having neurites with a length at least two times the diameter of each cell/total number of cells ([2]; 0.3 mM) [%] | Number of cells having neurites with a length at least two times the diameter of each cell/total number of cells ([2]; 1 mM) [%] | LD50 at 24 h (Acute toxicity on mice) [mg/kg] | also measured
1 | CN(C(=O)c1ccccc1)c1nccc(N2CCC(c3ccccc3)CC2)n1 [Compound 628] | 10.2 ± 1.3 | 13.4 ± 3.2 | 12.6 ± 3.2 | 10.0 ± 3.9 | 500 to 1000 | Number of cells in which neurites appeared/total number of cells ([1]; 24 hours, 0.1 mM): 9/50; Number of cells in which neurites appeared/total number of cells ([1]; 48 hours, 0.1 mM): 3/50
2 | CNc1cc(C)nc(N2CCC(c3ccccc3)CC2)n1 [Compound 1090] | 5.7 ± 0.6 | 12.2 ± 2.5 | 10.3 ± 0.9 | – | 500 to 1000 | Number of cells in which neurites appeared/total number of cells ([1]; 24 hours, 0.02 mM): 4/50; Number of cells in which neurites appeared/total number of cells ([1]; 24 hours, 0.1 mM): 21/50; Number of cells in which neurites appeared/total number of cells ([1]; 48 hours, 0.1 mM): 3/50; Number of cells having neurites with a length at least two times the diameter of each cell/total number of cells ([2]; 0.01 mM): 3.7 ± 1.0%
3 | CCCN(C(=O)c1ccccc1)c1ccnc(N2CCC(c3ccccc3)CC2)n1 [Compound 184] | – | 18.8 ± 4.7 | 16.0 ± 2.4 | – | > 1000 | Number of cells in which neurites appeared/total number of cells ([1]; 24 hours, 0.02 mM): 8/50; Number of cells in which neurites appeared/total number of cells ([1]; 24 hours, 0.1 mM): 5/48; Number of cells in which neurites appeared/total number of cells ([1]; 48 hours, 0.02 mM): 3/50
4 | CN(C(=O)c1ccccc1)c1ccnc(N2CCC(C(C)(C)C)CC2)n1 [Compound 152] | 6.2 ± 2.3 | 33.8 ± 4.7 | – | – | > 1000 | Number of cells in which neurites appeared/total number of cells ([1]; 24 hours, 0.05 mM): 3/50; Number of cells in which neurites appeared/total number of cells ([1]; 48 hours, 0.025 mM): 2/50
5 | CN(C(=O)c1ccc([N+](=O)[O-])cc1)c1ccnc(N2CCC(c3ccccc3)CC2)n1 [Compound 264] | – | 5.2 ± 3.1 | 8.7 ± 1.6 | 15.2 ± 3.2 | 500 to 1000 | Number of cells in which neurites appeared/total number of cells ([1]; 24 hours, 0.4 mM): 8/48; Number of cells in which neurites appeared/total number of cells ([1]; 48 hours, 0.4 mM): 4/50; Number of cells having neurites with a length at least two times the diameter of each cell/total number of cells ([2]; 3 mM): 7.2 ± 1.8%
6 | CN(C(=O)c1ccccc1)c1ccnc(N2CCCC3CCCCC32)n1 (centres unmarked) [Compound 2156] | 8.6 ± 1.0 | 19.6 ± 5.3 | – | – | > 1000 | –
7 | CON(C(=O)c1ccccc1)c1ccnc(N2CCC(c3ccccc3)CC2)n1 [Compound 2318] | 7.7 ± 1.4 | 35.1 ± 1.3 | 18.6 ± 5.2 | 8.8 ± 1.3 | 500 to 1000 | –
8 | CCCN(C(=O)c1ccccc1)c1nccc(N2CCC(c3ccccc3)CC2)n1 [Compound 644] | 26.1 ± 7.3 | 14.7 ± 7.3 | – | – | > 1000 | –
9 | CCCC1CCN(c2nccc(N(C)C(=O)c3ccccc3)n2)CC1 [Compound 146] | 8.7 ± 2.0 | 40.0 ± 6.1 | – | – | > 1000 | –
10 | CN(C)c1nccc(N(C)C(=O)c2ccccc2)n1 [Compound 104] | 2.5 ± 0.8 | 4.1 ± 1.5 | 7.7 ± 3.8 | 3.6 ± 1.4 | 500 to 1000 | –
11 | CC(C)C1CCN(c2nccc(N(C)C(=O)c3ccccc3)n2)CC1 [Compound 147-1] | 6.6 ± 0.4 | 30.5 ± 6.1 | – | – | > 1000 | –
12 | CN(C(=O)c1ccc(N)cc1)c1ccnc(N2CCC(c3ccccc3)CC2)n1 [Compound 2182] | 8.0 ± 3.2 | 2.7 ± 0.9 | – | – | 500 to 1000 | –
13 | CN(C(=O)Nc1ccccc1)c1ccnc(N2CCC(c3ccccc3)CC2)n1 [Compound 2218] | 9.7 ± 1.8 | 11.4 ± 6.1 | – | – | 500 to 1000 | –
14 | CN(C(=O)Cc1ccccc1)c1ccnc(N2CCC(c3ccccc3)CC2)n1 [Compound 2250] | – | 10.9 ± 3.9 | 19.2 ± 1.0 | – | 500 to 1000 | –
15 | CC1CCCN(c2nccc(N(C)C(=O)c3ccccc3)n2)C1 (centres unmarked) [Compound 138] | 6.3 ± 1.8 | 12.6 ± 4.1 | – | – | > 1000 | –
16 | CN1C(=O)Cc2cnc(N3CCN(C(c4ccc(F)cc4)c4ccc(F)cc4)CC3)nc21 [Compound 3184] | 3.7 ± 1.1 | 13.9 ± 2.3 | 18.4 ± 1.9 | 17.0 ± 2.1 | 500 to 1000 | –
17 | CN(C(=O)c1ccccc1)c1ccnc(N2CCC(CO)CC2)n1 [Compound 2164] | – | 4.6 ± 1.1 | – | 11.7 ± 0.7 | > 1000 | –
18 | CN(C(=O)N1CCOCC1)c1ccnc(N2CCC(c3ccccc3)CC2)n1 [Compound 2326] | 4.6 ± 1.4 | 8.3 ± 2.6 | – | – | 500 to 1000 | –
19 | CNc1nc(C)cc(N2CCC(c3ccccc3)CC2)n1 [Compound 1158] | 9.9 ± 1.4 | 18.4 ± 3.0 | 22.1 ± 6.7 | 19.1 ± 2.7 | < 250 | –
20 | Cc1cnc(N2CCCCC2)nc1N(C)C(=O)c1ccccc1 [Compound 408] | – | 9.1 ± 1.8 | 9.6 ± 3.9 | – | 500 to 1000 | –
21 | CN(C(=O)N1CCCCC1)c1ccnc(N2CCC(c3ccccc3)CC2)n1 [Compound 2210] | 9.5 ± 2.0 | 9.5 ± 1.9 | – | – | 500 to 1000 | –
22 | CN(C(=O)Oc1ccccc1)c1ccnc(N2CCC(c3ccccc3)CC2)n1 [Compound 2334] | 13.2 ± 0.2 | 16.7 ± 0.8 | – | – | > 1000 | –
23 | CN(C(=O)c1ccccc1)c1ccnc(N2CCC(OS(=O)(=O)c3ccccc3)CC2)n1 [Compound 2350] | – | – | 5.9 ± 1.5 | 8.3 ± 2.0 | 500 to 1000 | –
24 | CC1CC(C)CN(c2nccc(N(C)C(=O)c3ccccc3)n2)C1 (centres unmarked) [Compound 2004] | 6.6 ± 2.2 | 30.2 ± 6.4 | – | – | > 1000 | –
